Measurements as given in publication PMC11189555, “Aryl amino acetamides prevent Plasmodium falciparum ring development via targeting the lipid-transfer protein PfSTART1” (Nature Communications, 2024).
Several values for one entry are separate records, joined by “and”; a condition that tells them apart may be missing. Identical values can stand only once.

Tested on: 3D7 P. falciparum parasites
Assay: Growth inhibition assay (72 h, LDH activity)
Type: cell-based, Plasmodium falciparum
Conditions: for sample/DMSO (growth inhibition vs DMSO, LDH): 3D7, 2.5 mM GlcN, biological replicates 1-4; for (av-uRBC) / (DMSO-uRBC) x100: 3D7
Protocol: Parasite growth assays with inhibitory compounds were performed as per[11] and are fully described in the Supplementary Information. […]
Growth inhibition assays. Synchronised ring-stage parasites (0.3-0.6% parasitemia, 2% haematocrit) were grown for 72 h in a serial-dilution of the compound under […]
and compound 4. Note that M-833 was first purchased from MolPort (MolPort -002-267-916) then made in-house at WEHI: the differences observed in EC50s across experiments are attributed to the different batches of M -833. For some experiments, 0, 0.25 or 2.5 mM of glucosamine (GlcN) was also added. Experiments were set up in technical duplicates or triplicates. Following a freeze -thaw cycle, lactate dehydrogenase (LDH) activity was assessed as an indicator of parasite growt h 5. 30 μL of parasite culture was incubated for 30 min in the dark with 75 μL Malstat mixture (0.1 M Tris pH 9.0, 20 g/L lactic acid, pH 7.5, 0.2% Triton-X100, 0.5 g/L acetylpyridine adenine dinucleotide (APAD, Sigma), 200 μg/mL nitroblue tetrazolium (NBT; Sigma), 1 μg/mL phenozine ethosulfate (PES; Sigma)). Absorbance was then measured at 650 nm, transformed using the formula below, plotted against the logarithm of the concentrations, and a non-linear regression (log(inhibitor) vs. response, variable slope) was calculated using GraphPad Prism to assess the half-inhibitory […]
Growth inhibition % = (1 − average(sample)− average(uRBC)) ∗ 100 […]
The DMSO samples were also used to assess growth of parasite in the presence of 0.25 and 2.5 mM GlcN (normalised by DMSO in 0 mM GlcN). […]

For `Cc1cc(Cl)c(S(=O)(=O)N2CCCC2)cc1OCC(=O)NC1CCCCC1` [M-833], the “sample/DMSO (growth inhibition vs DMSO, LDH)” value (M-833 0.37037 uM) was 86.8658 and 83.833 and 67.9393 and 76.787, the “sample/DMSO (growth inhibition vs DMSO, LDH)” value (M-833 1.11111 uM) was 92.389 and 94.7232 and 88.5258 and 88.1778 and the “sample/DMSO (growth inhibition vs DMSO, LDH)” value (M-833 3.33333 uM) was 94.0803 and 95.4726 and 90.5741 and 88.9113. The “Growth (Abs) Normalised to DMSO” value (3D7, M-833 0.0390625 uM) was 98.5985, the “Growth (Abs) Normalised to DMSO” value (3D7, M-833 0.078125 uM) was 87.6094 and the “Growth (Abs) Normalised to DMSO” value (3D7, M-833 0.15625 uM) was 73.0137. For the same molecule, the “Growth (Abs) Normalised to DMSO” value (3D7, M-833 0.3125 uM) was 46.3221, the “Growth (Abs) Normalised to DMSO” value (3D7, M-833 0.625 uM) was 13.1941 and the “Growth (Abs) Normalised to DMSO” value (3D7, M-833 1.25 uM) was 5.1955. For the same molecule, the “Growth (Abs) Normalised to DMSO” value (3D7, M-833 2.5 uM) was 3.473, the “Growth (Abs) Normalised to DMSO” value (3D7, M-833 5 uM) was 2.75 and the “Growth (Abs) Normalised to DMSO” value (3D7, M-833 10 uM) was 1.893. The “(av-uRBC) / (DMSO-uRBC) x100” value (conc. 3.04832 nM, Biological replicate 1 (2021-10-25)) was 99.6118, the “(av-uRBC) / (DMSO-uRBC) x100” value (conc. 3.04832 nM, Biological replicate 2 (2021-11-03)) was 102.365 and the “(av-uRBC) / (DMSO-uRBC) x100” value (conc. 9.14495 nM, Biological replicate 1 (2021-10-25)) was 98.5673. For the same molecule, the “(av-uRBC) / (DMSO-uRBC) x100” value (conc. 9.14495 nM, Biological replicate 2 (2021-11-03)) was 104.012, the “(av-uRBC) / (DMSO-uRBC) x100” value (conc. 27.4348 nM, Biological replicate 1 (2021-10-25)) was 97.1981 and the “(av-uRBC) / (DMSO-uRBC) x100” value (conc. 27.4348 nM, Biological replicate 2 (2021-11-03)) was 104.176. The “(av-uRBC) / (DMSO-uRBC) x100” value (conc. 82.3045 nM, Biological replicate 1 (2021-10-25)) was 86.0541, the “(av-uRBC) / (DMSO-uRBC) x100” value (conc. 82.3045 nM, Biological replicate 2 (2021-11-03)) was 97.3382 and the “(av-uRBC) / (DMSO-uRBC) x100” value (conc. 246.914 nM, Biological replicate 1 (2021-10-25)) was 38.189. For the same molecule, the “(av-uRBC) / (DMSO-uRBC) x100” value (conc. 246.914 nM, Biological replicate 2 (2021-11-03)) was 46.3664, the “(av-uRBC) / (DMSO-uRBC) x100” value (conc. 740.741 nM, Biological replicate 1 (2021-10-25)) was 13.3602 and the “(av-uRBC) / (DMSO-uRBC) x100” value (conc. 740.741 nM, Biological replicate 2 (2021-11-03)) was 12.5985. The “(av-uRBC) / (DMSO-uRBC) x100” value (conc. 2222.22 nM, Biological replicate 1 (2021-10-25)) was 9.5843, the “(av-uRBC) / (DMSO-uRBC) x100” value (conc. 2222.22 nM, Biological replicate 2 (2021-11-03)) was 9.9758 and the “(av-uRBC) / (DMSO-uRBC) x100” value (conc. 6666.67 nM, Biological replicate 1 (2021-10-25)) was 8.737. The “(av-uRBC) / (DMSO-uRBC) x100” value (conc. 6666.67 nM, Biological replicate 2 (2021-11-03)) was 9.539, the “(av-uRBC) / (DMSO-uRBC) x100” value (conc. 20000 nM, Biological replicate 1 (2021-10-25)) was 8.871 and the “(av-uRBC) / (DMSO-uRBC) x100” value (conc. 20000 nM, Biological replicate 2 (2021-11-03)) was 7.978. The “Normalised to DMSO” value (3D7 replicate 1, M-833 0.0390625 uM) was 93.8526, the “Normalised to DMSO” value (3D7 replicate 1, M-833 0.078125 uM) was 78.1653 and the “Normalised to DMSO” value (3D7 replicate 1, M-833 0.15625 uM) was 53.0058. For the same molecule, the “Normalised to DMSO” value (3D7 replicate 1, M-833 0.3125 uM) was 31.7546, the “Normalised to DMSO” value (3D7 replicate 1, M-833 0.625 uM) was 15.6331 and the “Normalised to DMSO” value (3D7 replicate 1, M-833 1.25 uM) was 6.894. For the same molecule, the “Normalised to DMSO” value (3D7 replicate 1, M-833 2.5 uM) was 4.18, the “Normalised to DMSO” value (3D7 replicate 1, M-833 5 uM) was 4.492 and the “Normalised to DMSO” value (3D7 replicate 1, M-833 10 uM) was 2.7005. The “Normalised to DMSO” value (3D7 replicate 2, M-833 0.0390625 uM (plate column as in replicate 1)) was 98.0943 and the “Normalised to DMSO” value (3D7 replicate 2, M-833 0.078125 uM (plate column as in replicate 1)) was 69.2248.
